Several values for one entry are separate records, joined by “and”; a condition that tells them apart may be missing. Identical values can stand only once. Like-named read-outs stand apart in the source and are kept apart here.
Columns and labels:
p38α [1] = target: T1, p38α (Homo sapiens, UniProt Q16539); test: ADP-Glo Kinase Assay, p38α MAP kinase inhibition; assay type: biochemical; details: read-out: p38α MAP kinase inhibitory activity IC50
Method: The capacity of brominated tyrosine derivatives to inhibit p38α activity was evaluated using the ADP-Glo Kinase Assay.

PC9 cells = test: MTT anti-proliferation assay, PC9 cells; assay type: cell-based, human; details: for MTT, PC9, value relative to control (=100), single replicate: 24 h
Method: (§1) To evaluate the tumor-selective activity of compounds 4l and 4m, dose–response studies were performed on wild-type PC9 and gefitinib-resistant PC9/GR cell lines. […] Subtoxic concentrations of 25, 50, and 75 μM were employed to ensure specificity for drug-resistant phenotypes while preserving normal cell viability. […] To assess long-term proliferative potential, clonogenic survival assays were performed. Cells pretreated with 4l (24 h) were trypsinized to generate single-cell suspensions, plated at 300 cells/well, and cultured for 14 days. […] Cell migration ability was evaluated by the scratch healing assay. […] To evaluate the pro-apoptotic efficacy of 4l, we employed a dual-staining approach using Annexin V-FITC and propidium iodide (PI) for quadrant-specific quantification of programmed cell death. Annexin V binds externalized phosphatidylserine (PS), a hallmark of early apoptosis, while PI permeabilization discriminates late-stage apoptotic or necrotic cells.
(§2) The human normal lung epithelial cell line BEAS-2B, non-small cell lung carcinoma (NSCLC) cell line PC9, and gefitinib-resistant PC9/GR cell line were purchased from Procell Life Science & Technology Co., Ltd. (Wuhan, China). All cell lines were maintained in RPMI-1640 medium (BI, Beit Haemek, Mateh Asher, Israel) supplemented with 10% fetal bovine serum (FBS, Gibco, Thermo Fisher Scientific, Waltham, MA, USA) and 1% penicillin–streptomycin–amphotericin B sterile solution (Solarbio, Beijing, China). Cells were cultured at 37 °C in a humidified incubator with 5% CO2. For subculturing, cells were harvested using trypsin-EDTA solution upon reaching 70–80% confluence and resuspended at appropriate densities for subsequent experiments.
(§3) MTT: Cells (5 × 10^4/mL) were treated with 4l (25–100 μM, 24–48 h), incubated with MTT (10 μL/well, 4–6 h), and dissolved in DMSO. Absorbance (490 nm) was measured to assess viability.

PC9/GR cells = test: MTT anti-proliferation assay, gefitinib-resistant PC9/GR cells; assay type: cell-based, human; details: for MTT, PC9/GR, value relative to control (=100), single replicate: 24 h
Method: as §1, §2, §3

p38α [2] = target: T1, p38α; set-up: method as in PMID 30642059; details: compounds 6a–6o synthesized in previous work; read-out: p38α MAP kinase inhibitory activity IC50; cited from earlier work

T1 sequence (Q16539 whole entry): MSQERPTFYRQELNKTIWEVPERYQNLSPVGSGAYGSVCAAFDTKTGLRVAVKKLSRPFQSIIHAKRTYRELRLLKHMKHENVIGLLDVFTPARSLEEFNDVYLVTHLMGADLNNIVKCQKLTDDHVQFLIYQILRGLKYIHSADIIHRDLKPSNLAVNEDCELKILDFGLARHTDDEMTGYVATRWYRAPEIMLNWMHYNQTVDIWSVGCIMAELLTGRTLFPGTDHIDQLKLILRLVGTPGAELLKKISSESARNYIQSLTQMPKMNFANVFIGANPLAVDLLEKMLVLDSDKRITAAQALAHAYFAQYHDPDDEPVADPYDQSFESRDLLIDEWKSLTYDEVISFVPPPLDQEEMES

Compound | IC50 (p38α [1]) | further results
COc1ccc(NC(=O)NCCc2cc(Br)c(O)c(Br)c2)cc1 [4a, 1-(3,5-dibromo-4-hydroxyphenethyl)-3-(4-methoxyphenyl)urea] | 265 ± 20.7 nM | –
CCOc1ccc(NC(=O)NCCc2cc(Br)c(O)c(Br)c2)cc1 [4b, 1-(3,5-dibromo-4-hydroxyphenethyl)-3-(4-ethoxyphenyl)urea] | 170 ± 12.1 nM | –
CCCOc1ccc(NC(=O)NCCc2cc(Br)c(O)c(Br)c2)cc1 [4c, 1-(3,5-dibromo-4-hydroxyphenethyl)-3-(4-propoxyphenyl)urea] | 297 ± 17.5 nM | –
CCCCOc1ccc(NC(=O)NCCc2cc(Br)c(O)c(Br)c2)cc1 [4d, 1-(4-butoxyphenyl)-3-(3,5-dibromo-4-hydroxyphenethyl)urea] | 914 ± 44.3 nM | –
O=C(NCCc1cc(Br)c(O)c(Br)c1)Nc1ccc(OCCCN2CCOCC2)cc1 [4g, 1-(3,5-dibromo-4-hydroxyphenethyl)-3-(4-(3-morpholinopropoxy)phenyl)urea] | 167 ± 13.6 nM | –
CC(C)Oc1ccc(NC(=O)NCCc2cc(Br)c(O)c(Br)c2)cc1 [4h, 1-(3,5-dibromo-4-hydroxyphenethyl)-3-(4-isopropoxyphenyl)urea] | 850 ± 32.7 nM | –
O=C(NCCc1cc(Br)c(O)c(Br)c1)Nc1cccc(Cl)c1 [4i, 1-(3-chlorophenyl)-3-(3,5-dibromo-4-hydroxyphenethyl)urea] | 13.9 ± 2.7 nM | –
O=C(NCCc1cc(Br)c(O)c(Br)c1)Nc1ccccc1Cl [4j, 1-(2-chlorophenyl)-3-(3,5-dibromo-4-hydroxyphenethyl)urea] | 74.4 ± 13 nM | –
O=C(NCCc1cc(Br)c(O)c(Br)c1)Nc1ccc(Br)cc1 [4k, 1-(4-bromophenyl)-3-(3,5-dibromo-4-hydroxyphenethyl)urea] | 51.1 ± 9.5 nM | –
O=C(NCCc1cc(Br)c(O)c(Br)c1)Nc1ccccc1F [4m, 1-(3,5-dibromo-4-hydroxyphenethyl)-3-(2-fluorophenyl)urea] | 10.2 ± 2.3 nM | MTT, PC9, value relative to control (=100), single replicate (PC9 cells; 25 (μM)): 72.71 and 78.44 and 89.41 and 73.662; MTT, PC9, value relative to control (=100), single replicate (PC9 cells; 50 (μM)): 73.32 and 75.35 and 64.23 and 80.16; MTT, PC9, value relative to control (=100), single replicate (PC9 cells; 75 (μM)): 63.32 and 73.36 and 69.44 and 65.21; MTT, PC9, value relative to control (=100), single replicate (PC9 cells; 100 (μM)): 61.89 and 69.88 and 70.31 and 63.67; IC50 (PC9 cells; Homo sapiens, PC-9, wild-type PC9, MTT, 24-hour treatment, 0–100 μM, read-out: IC50, growth inhibition): 55500 nM; MTT, PC9/GR, value relative to control (=100), single replicate (PC9/GR cells; 25 (μM)): 62.45 and 66.61 and 79.63 and 68.61; MTT, PC9/GR, value relative to control (=100), single replicate (PC9/GR cells; 50 (μM)): 61.78 and 67.43 and 60.72 and 69.73; MTT, PC9/GR, value relative to control (=100), single replicate (PC9/GR cells; 75 (μM)): 48.89 and 53.34 and 39.63 and 40.04; MTT, PC9/GR, value relative to control (=100), single replicate (PC9/GR cells; 100 (μM)): 37.64 and 39.62 and 40.69 and 41.33; IC50 (PC9/GR cells; Homo sapiens, gefitinib-resistant PC9/GR, MTT, 24-hour treatment, 0–100 μM, read-out: IC50, growth inhibition): 39000 nM; selectivity towards cells with the drug-resistant phenotype (PC9/GR cells; PC9/GR versus PC9): did not demonstrate significant selectivity
Cc1ccc(NC(=O)NCCc2cc(Br)c(O)c(Br)c2)cc1 [4n, 1-(3,5-dibromo-4-hydroxyphenethyl)-3-(p-tolyl)urea] | 38.7 ± 8.1 nM | –
COCCOc1ccc(NC(=O)NCCc2cc(Br)c(O)c(Br)c2)cc1 [4o, 1-(3,5-dibromo-4-hydroxyphenethyl)-3-(4-(2-methoxyethoxy)phenyl)urea] | 11.3 ± 26.2 nM | –
COc1c(Br)cc(CCNC(=O)Nc2ccc(OCCCN3CCOCC3)cc2)cc1Br [6g] | – | IC50 (p38α [2]): 11.7 ± 3 nM

Source: paper PMC12471852, “Design and Synthesis of Marine-Inspired Itampolin A Derivatives to Overcome Chemoresistance in NSCLC via Cholesterol Homeostasis Modulation” (Marine Drugs, 2025)
